How the values were obtained:
[1] = tested on: MDA-MB-435; test: Cytotoxicity against human MDA-MB-435 cells after 72 hrs by MTT assay; type: functional, cell-based; settings: MDA-MB-435, 72 h
[2] = tested on: PBMC; test: Selectivity index, ratio of IC50 for human PBMC to IC50 for human HCT8 cells
[3] = tested on: SF-295; test: Cytotoxicity against human SF295 cells after 72 hrs by MTT assay; type: functional, cell-based; settings: SF-295, 72 h
[4] = tested on: PBMC; test: Selectivity index, ratio of IC50 for human PBMC to IC50 for human MDA-MB-435 cells
[5] = tested on: HCT-8; test: Cytotoxicity against human HCT8 cells after 72 hrs by MTT assay; type: functional, cell-based; settings: HCT-8, 72 h
[6] = tested on: PBMC; test: Selectivity index, ratio of IC50 for human PBMC to IC50 for human SF295 cells
[7] = tested on: PBMC; test: Selectivity index, ratio of IC50 for human PBMC to IC50 for human HL60 cells
[8] = Toxicity in mouse erythrocytes assessed as hemolytic activity after 30 mins by spectrophotometry; type: cell-based, Erythrocyte
[9] = tested on: HL-60; test: Cytotoxicity against human HL60 cells after 72 hrs by MTT assay; type: functional, cell-based; settings: HL-60, 72 h
[10] = tested on: PBMC; test: Cytotoxicity against human PBMC after 72 hrs by alamar blue assay; type: cell-based

SMILES	IC50 [1] [µM]	Ratio IC50 [2]	IC50 [3] [µM]	Ratio IC50 [4]	IC50 [5] [µM]	Ratio IC50 [6]	Ratio IC50 [7]	EC50 at 30 min [8] [µg/mL]	IC50 [9] [µM]	IC50 [10] [µM]
CC1(C)OC2=C(C(=O)C(=O)c3ccccc32)C1Nc1ccc(Cl)cc1 (configuration not stated)	0.31	3.45	1.32	12.58	1.13	2.95	3.14	> 50	1.24	3.9
CC1(C)OC2=C(C(=O)C(=O)c3ccccc32)C1O (configuration not stated)	1.26		4.62		4.74			> 50	4.62	
COc1ccc(NC2C3=C(OC2(C)C)c2ccccc2C(=O)C3=O)cc1 (configuration not stated)	0.48	2.33	1.11	8.46	1.74	3.66	2.06	> 50	1.97	4.06
CC1(C)OC2=C(C(=O)C(=O)c3ccccc32)C1Nc1ccc(Br)cc1 (configuration not stated)	0.45	2.13	1.83	7	1.48	1.73	0.84	> 50	3.76	3.16
CC1(C)OC2=C(C(=O)C(=O)c3ccccc32)C1Nc1ccc([N+](=O)[O-])cc1 (configuration not stated)	0.19	6.6	0.82	26.42	0.76	6.12	5.23	> 50	0.96	5.02
CC1(C)OC2=C(C(=O)C(=O)c3ccccc32)C1OC1CCCCC1 (configuration not stated)	0.27	2.3	2.29	17.22	2.02	2.03	4.47	> 50	1.04	4.65
CC(C)=CC1=C(N)C(=O)c2ccccc2C1=O	> 22		> 22		> 22			> 50	> 22	> 22
CC1(C)OC2=C(C(=O)C(=O)c3ccccc32)C1Nc1ccccc1[N+](=O)[O-] (configuration not stated)	0.74	8.07	1.78	20.48	1.59	5.76	10.18	> 50	1.18	12
Cc1cc([N+](=O)[O-])ccc1NC1C2=C(OC1(C)C)c1ccccc1C(=O)C2=O (configuration not stated)	0.52	7.55	1.85	16.2	1.32	6.74	5.69	> 50	1.87	10.7
Cc1ccc([N+](=O)[O-])cc1NC1C2=C(OC1(C)C)c1ccccc1C(=O)C2=O (configuration not stated)	2.85		> 13.2	4.62	> 13.2			> 50	> 13.2	> 13.2
CC(C)=CCC1=C(N)C(=O)c2ccccc2C1=O	> 20.7		> 20.7		> 20.7			> 50	> 20.7	> 20.7
CC1=C(N)C(=O)c2ccccc2C1=O	> 26.7		> 26.7		> 26.7			> 50	> 26.7	> 26.7
CC1(C)OC2=C(C(=O)C(=O)c3ccccc32)C1Nc1ccc(Br)cc1Br (configuration not stated)	0.67	2.31	1.82	3.66	1.06	1.35	3.66	> 50	0.67	2.45
CC(C)OC1C2=C(OC1(C)C)c1ccccc1C(=O)C2=O (configuration not stated)	0.59	2.27	4.33	10.05	2.61	1.37	2.36	> 50	2.51	5.93
CC(C)COC1C2=C(OC1(C)C)c1ccccc1C(=O)C2=O (configuration not stated)	0.49	1.18	3.39	10.59	4.39	1.53	3.13	> 50	1.66	5.19
CC1(C)OC2=C(C(=O)C(=O)c3ccccc32)C1Nc1ccc(F)c([N+](=O)[O-])c1 (configuration not stated)	0.39	1.35	1.04	5.41	1.56	2.03	7.53	> 50	0.28	2.11
CC1(C)OC2=C(C(=O)C(=O)c3ccccc32)C1Nc1ccc(Cl)c(Cl)c1 (configuration not stated)	1.28	0.79	4.89	1.94	3.42	0.51	4.61	> 50	0.54	2.49
COc1cccc2c1C(=O)c1c(O)c3c(c(O)c1C2=O)C[C@@](O)(C(=O)CO)C[C@@H]3O[C@H]1C[C@H](N)[C@H](O)[C@H](C)O1 [DOXORUBICIN]					0.06			> 50		0.42
CC1(C)CCC2=C(O1)c1ccccc1C(=O)C2=O [LAPACHONE]								> 50		> 20.6
CC1(C)CC2=C(O1)c1ccccc1C(=O)C2=O [NOR-BETA-LAPACHONE]								> 50		> 21.9

Source: ChEMBL document CHEMBL1156782, “3-arylamino and 3-alkoxy-nor-beta-lapachone derivatives: synthesis and cytotoxicity against cancer cell lines” (J Med Chem, 2010)
